Laboratory results from ChEMBL document CHEMBL6177981, “Bardoxolone Derivatives as Novel Pseudo-Natural Necroptosis Inhibitors by Destabilizing HSP90 Client Proteins” (J Med Chem, 2025).
Activity calls are given as the source filed them. The calls are words filed in the database; no cut-off is given here.

Key:
HT-29 [1] = experiment: Effect on RIPK3 protein level in human HT-29 cell precipitate at 6 uM measured after 9 hrs by Western blot analysis; type: functional, cell-based
HeLa [2] = experiment: Upregulation of HSP70 expression in RIPK3-deficient human HeLa cells at 1.5 uM incubated for 9 hrs by Western blot analysis; type: functional, cell-based
Mus musculus [3] = experiment: Anti-necroptotic activity in TNFalpha/Z-VAD-FMK induced SIRS male C57BL/6J mouse model assessed as reduction in IL6 in liver at 5 to 10 mg/kg, po pre-administered with compound via gavage for 2 hrs followed by […] of Z-VAD-FMK stimulation for 15 mins with subsequent TNF-alpha stimulation for 1 hrs and re-current […] of Z-VAD-FMK stimulation and measured after 8 hrs post SIRS induction by ELISA; type: functional, organism-based; conditions: dose 5-10 mg/kg, time 10.0 hrs
Mus musculus [4] = experiment: Anti-necroptotic activity in TNFalpha/Z-VAD-FMK induced SIRS male C57BL/6J mouse model assessed as reduction in IL6 in intestine at 5 to 10 mg/kg, po pre-administered with compound via gavage for 2 hrs followed by […] of Z-VAD-FMK stimulation for 15 mins with subsequent TNF-alpha stimulation for 1 hrs and re-current […] of Z-VAD-FMK stimulation and measured after 8 hrs post SIRS induction by ELISA; type: functional, organism-based; conditions: dose 5-10 mg/kg, time 10.0 hrs
[5] = biological target: Heat shock protein HSP90 (Homo sapiens) (UniProt P07900+P08238); experiment: Inhibition of HSP90 in TSZ-induced human HT-29 cells assessed as reduction in EGFR protein level at 10 uM preincubated with compound followed by Z-VAD-FMK, SM164 and TNFalpha stimulation and measured after 6 hrs by Western blot analysis; type: cell-based
Mus musculus [6] = experiment: Anti-necroptotic activity in TNFalpha/Z-VAD-FMK induced SIRS male C57BL/6J mouse model assessed as reduction in IL-1beta in spleen at 5 to 10 mg/kg, po pre-administered with compound via gavage for 2 hrs followed by […] of Z-VAD-FMK stimulation for 15 mins with subsequent TNF-alpha stimulation for 1 hrs and re-current […] of Z-VAD-FMK stimulation and measured after 8 hrs post SIRS induction by ELISA; type: functional, organism-based; conditions: dose 5-10 mg/kg, time 10.0 hrs
[7] = biological target: Receptor-interacting serine/threonine-protein kinase 3 (Homo sapiens) (UniProt Q9Y572); experiment: Inhibition of RIPK3 phosphorylation in TSZ-induced human HT-29 cells at 10 uM preincubated with compound followed by Z-VAD-FMK, SM164 and TNFalpha stimulation and measured within 6 hrs by Western blot analysis relative to control; type: cell-based
HT-29 [8] = experiment: Downregulation of RIPK3 protein level in human HT-29 cells at 6 uM preincubated with NH4Cl for 2 hrs followed by compound addition and measured after 9 hrs by Western blot analysis; type: functional, cell-based
HeLa [9] = experiment: Inhibition of RIPK1 protein expression in RIPK3-deficient human HeLa cells at 0.75 to 6 uM incubated for 9 hrs by Western blot analysis; type: functional, cell-based; conditions: dose 0.75-6 µM
HT-29 [10] = experiment: Anti-necroptotic activity in TSZ-induced human HT-29 cells assessed as increase in cell viability preincubated with compound followed by Z-VAD-FMK, SM164 and TNFalpha addition and measured after 12 hrs by CellTiter-Lumi luminescent cell viability assay; type: functional, cell-based; conditions: dose 0.156-10 µM
HeLa [11] = experiment: Inhibition of RIPK1 protein expression in RIPK3-deficient human HeLa cells at 6 uM preincubated with NH4Cl for 2 hrs followed by compound addition and measured after 9 hrs by Western blot analysis; type: functional, cell-based
[12] = Acute toxicity in male C57BL/6J mouse assessed as hemorrhage in spleen at 2 g/Kg, IG measured after 72 hrs by H and E staining based analysis; type: tissue-based; conditions: in vivo, po, 2000 mg/kg
HT-29 [13] = experiment: Upregulation of HSP70 protein level in TSZ-induced human HT-29 cells at 10 uM preincubated with compound followed by Z-VAD-FMK, SM164 and TNFalpha stimulation and measured after 6 hrs by Western blot analysis; type: functional, cell-based
[14] = Acute toxicity in male C57BL/6J mouse assessed as structural changes in intestine at 2 g/Kg, IG measured after 72 hrs by H and E staining based analysis; type: tissue-based; conditions: in vivo, po, 2000 mg/kg
[15] = Acute toxicity in male C57BL/6J mouse assessed as hemorrhage in stomach at 2 g/Kg, IG measured after 72 hrs by H and E staining based analysis; type: tissue-based; conditions: in vivo, po, 2000 mg/kg
[16] = Acute toxicity in male C57BL/6J mouse assessed as effect on ALP level at 2 g/Kg, IG measured after 72 hrs; conditions: in vivo, po, 2000 mg/kg
HT-29 [17] = experiment: Downregulation of RIPK1 protein level in human HT-29 cell precipitate at 6 uM measured after 9 hrs by Western blot analysis; type: functional, cell-based
[18] = AUC (0 to 24 hrs) in Sprague-Dawley rat at 10 mg/kg, IG measured after 24 hrs by LC-MS/MS analysis; type: ADME, organism-based; conditions: in vivo, po
[19] = Acute toxicity in male C57BL/6J mouse assessed as effect on ALT level at 2 g/Kg, IG measured after 72 hrs; conditions: in vivo, po, 2000 mg/kg
[20] = Acute toxicity in male C57BL/6J mouse assessed as inflammatory cell infiltration in brain at 2 g/Kg, IG measured after 72 hrs by H and E staining based analysis; type: tissue-based; conditions: in vivo, po, 2000 mg/kg
[21] = Acute toxicity in male C57BL/6J mouse assessed as hemorrhage in lung at 2 g/Kg, IG measured after 72 hrs by H and E staining based analysis; type: tissue-based; conditions: in vivo, po, 2000 mg/kg
Mus musculus [22] = experiment: Anti-necroptotic activity in TNFalpha/Z-VAD-FMK induced SIRS male C57BL/6J mouse model assessed as reduction in IL6 in spleen at 5 to 10 mg/kg, po pre-administered with compound via gavage for 2 hrs followed by […] of Z-VAD-FMK stimulation for 15 mins with subsequent TNF-alpha stimulation for 1 hrs and re-current […] of Z-VAD-FMK stimulation and measured after 8 hrs post SIRS induction by ELISA; type: functional, organism-based; conditions: dose 5-10 mg/kg, time 10.0 hrs
[23] = Acute toxicity in male C57BL/6J mouse assessed as effect on urea level at 2 g/Kg, IG measured after 72 hrs; conditions: in vivo, po, 2000 mg/kg
Mus musculus [24] = experiment: Anti-necroptotic activity in TNFalpha/Z-VAD-FMK induced SIRS male C57BL/6J mouse model assessed as reduction in IL6 in lung at 5 to 10 mg/kg, po pre-administered with compound via gavage for 2 hrs followed by […] of Z-VAD-FMK stimulation for 15 mins with subsequent TNF-alpha stimulation for 1 hrs and re-current […] of Z-VAD-FMK stimulation and measured after 8 hrs post SIRS induction by ELISA; type: functional, organism-based; conditions: dose 5-10 mg/kg, time 10.0 hrs
HT-29 [25] = experiment: Anti-apoptotic activity in TC-induced human HT-29 cells assessed as increase in cell viability at 1.25 to 20 uM preincubated with compound followed by TNF-alpha and cycloheximide addition and measured after 24 hrs by CellTiter-Lumi luminescent cell viability assay; type: functional, cell-based; conditions: dose 1.25-20 µM
[26] = Acute toxicity in male C57BL/6J mouse assessed as inflammatory cell infiltration in lung at 2 g/Kg, IG measured after 72 hrs by H and E staining based analysis; type: tissue-based; conditions: in vivo, po, 2000 mg/kg
HT-29 [27] = experiment: Effect on MLKL protein level in human HT-29 cell precipitate at 6 uM measured after 9 hrs by Western blot analysis; type: functional, cell-based

Receptor-interacting serine/threonine-protein kinase 3 (Homo sapiens), sequence (Q9Y572 whole entry, looked up): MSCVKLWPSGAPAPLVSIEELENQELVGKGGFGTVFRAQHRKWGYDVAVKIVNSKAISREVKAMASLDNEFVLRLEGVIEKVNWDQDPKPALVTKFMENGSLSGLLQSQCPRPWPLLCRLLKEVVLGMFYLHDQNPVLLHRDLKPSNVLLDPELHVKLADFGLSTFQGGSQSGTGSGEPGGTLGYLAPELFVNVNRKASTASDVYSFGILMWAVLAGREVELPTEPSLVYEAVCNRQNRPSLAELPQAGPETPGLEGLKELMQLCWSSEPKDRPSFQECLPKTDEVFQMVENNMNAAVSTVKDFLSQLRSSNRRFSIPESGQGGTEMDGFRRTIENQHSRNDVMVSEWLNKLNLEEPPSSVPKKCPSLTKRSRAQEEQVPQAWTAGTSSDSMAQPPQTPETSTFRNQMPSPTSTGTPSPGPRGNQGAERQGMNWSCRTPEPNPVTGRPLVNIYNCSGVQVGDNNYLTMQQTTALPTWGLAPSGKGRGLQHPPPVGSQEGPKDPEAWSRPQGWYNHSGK

Question: With Cn1ccc(-c2ccc(NC(=O)[C@]34CCC(C)(C)C[C@H]3[C@H]3C(=O)C=C5[C@@]6(C)C=C(C#N)C(=O)C(C)(C)[C@@H]6CC[C@@]5(C)[C@]3(C)CC4)cc2)n1 as the molecule, how does the Activity (HT-29 [1]) read?
Answer: inactive

Question: What about the Activity (HeLa [2]) of the same molecule?
Answer: Active

Question: And the Activity (Mus musculus [3])?
Answer: Active

Question: What about the Activity (Mus musculus [4]) of the same molecule?
Answer: Active

Question: And the inhibition [5]?
Answer: Active

Question: And the Activity (Mus musculus [6])?
Answer: Active

Question: And the inhibition [7]?
Answer: 100%

Question: What about the Activity (HT-29 [8]) of the same molecule?
Answer: Active

Question: What about the inhibition (HeLa [9]) of the same molecule?
Answer: Active

Question: And the Activity (HT-29 [10])?
Answer: Dose-dependent-effect

Question: What about the inhibition (HeLa [11]) of the same molecule?
Answer: Active

Question: What about the Activity [12] of the same molecule?
Answer: Non-toxic

Question: And the Activity (HT-29 [13])?
Answer: inactive

Question: And the Activity [14]?
Answer: Non-toxic

Question: What about the Activity [15] of the same molecule?
Answer: Non-toxic

Question: What about the Activity [16] of the same molecule?
Answer: Non-toxic

Question: And the Activity (HT-29 [17])?
Answer: inactive

Question: And the AUC(0-t) at 24 h [18]?
Answer: 1080 ng·h/mL

Question: And the Activity [19]?
Answer: Non-toxic

Question: And the Activity [20]?
Answer: Non-toxic

Question: And the Activity [21]?
Answer: Non-toxic

Question: And the Activity (Mus musculus [22])?
Answer: Active

Question: And the Activity [23]?
Answer: Non-toxic

Question: And the Activity (Mus musculus [24])?
Answer: Active

Question: And the Activity (HT-29 [25])?
Answer: inactive

Question: What about the Activity [26] of the same molecule?
Answer: Non-toxic

Question: What about the Activity (HT-29 [27]) of the same molecule?
Answer: inactive
